{"source": "paper PMC12010937", "about": "“Evaluation of FXR Activity in Pollutants Identified in Sewage Sludge and Subsequent in Vitro and in Vivo Characterization of Metabolic Effects of Triphenyl Phosphate” (Environmental Health Perspectives, 2025)", "key": {"[1]": {"target": "T1, human FXR-LBD (6His-FXR-LBD) (Homo sapiens, UniProt Q96RI1)", "T1 construct": "human FXR (residues 243–472) was expressed and purified as an amino-terminal 6His fusion protein; made in house; host or cells: E. coli BL21(DE3)", "T1 sequence (Q96RI1 243-472 isoform Q96RI1-2)": "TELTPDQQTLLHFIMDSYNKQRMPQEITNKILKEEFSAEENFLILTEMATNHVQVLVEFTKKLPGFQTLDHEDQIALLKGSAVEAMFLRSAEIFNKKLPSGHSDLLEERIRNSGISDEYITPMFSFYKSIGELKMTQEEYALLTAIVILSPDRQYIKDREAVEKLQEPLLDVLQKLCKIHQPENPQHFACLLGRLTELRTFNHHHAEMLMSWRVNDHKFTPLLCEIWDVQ", "experiment": "Surface plasmon resonance (SPR) analysis", "format": "binding", "description": ". First, 40μg/mL purified 6His-FXR-LBD protein was immobilized on a CM5 sensor chip (29149603; Cytiva) by amine coupling reaction. In detail, the carboxymethyl dextran surface of the CM5 sensor chip was activated by injecting a 1:1 mixture of 0.4M 1-ethyl-3-(3-dimethylaminopropyl)-carbodiimide (EDC) and 0.1M N-hydroxysuccinimide (NHS) for 7 min, then the 6His-FXR-LBD protein was injected and immobilized on the activated surface for 5 min, and subsequently the excess activated groups on the surface were deactivated by 1.0M ethanolamine (pH 8.5). Then, seven different concentrations of compounds (including 3.125μM , 6.25μM , 12.5μM , 25μM , 50μM , 100μM , and 200μM ) were prepared with HBS-EP buffer [ 10 mM HEPES, 150 mM NaCl, 3 mM EDTA, 0.005% (v/v) surfactant P20, pH 7.4], and the final DMSO concentration was adjusted to 2%. The samples were injected into the chip at a flow rate of 30μL/min for 60 s, followed by dissociation for 120 s at 25°C. One of the flow cells on the chip without FXR-LBD protein was used as a negative control. The responses were recorded during the experiment, and the sensorgrams were obtained by subtracting the binding response of the negative control. The equilibrium dissociation constant (KD) was determined by steady-state fitting mode with Biacore T200 Evaluation Software (version 3.2; Cytiva)."}, "[2]": {"experiment": "Analysis of TPHP in mice (serum, liver, ileum) by UPLC-MS/MS", "format": "in vivo, C57BL/6N mice", "settings": "mouse", "description": "Male C57BL/6N mice (8 wk of age) were purchased from Beijing Vital River Laboratory Inc. and acclimated to the environment for 2 wk before they were used for experiments. The environment was maintained at 22°C, in a 12-h light/dark cycle with 50%–60% relative humidity and fed standard chow diets. Because the male mice are more sensitive to metabolic disease than female mice and the estrous cycle of female mice may induce variability to the metabolic phenotypes,[50] only male mice were used in this study. Animals were randomly assigned to control or TPHP treatment groups (five mice per group). Mice were exposed to corn oil (control) purchased from Sigma-Aldrich (C8267) or TPHP (dissolved in corn oil) at 10mg/kg or 50mg/kg body weight (BW) by daily oral gavage for 35 d. The administered volume was 5mL/kg BW. The TPHP corn oil solutions for administration were prepared by dissolving the TPHP in corn oil, and the solutions were stored at −20°C and freshly prepared each week. BW was measured every other day during the dosing period. At the end of experiments, the mice were anesthetized with isoflurane, then blood was collected from the retro-orbital sinus via orbital puncture, and then the mice were euthanized by cervical dislocation. The liver was isolated, weighted, and divided into three fractions: one fraction was fixed with 4% neutral-buffered formalin for Oil Red staining; another fraction was frozen in liquid nitrogen and stored at −80°C for the BA targeted analysis, lipidomic analysis, and qPCR analysis; the remaining fraction was embedded with 3% carboxymethylcellulose (CMC) for MSI analysis. The ileum was also isolated, weighted, and stored at −80°C for the BA targeted analysis and qRT-PCR analysis. Cecal contents were collected from the cecum of mice for the 16S rRNA gene sequencing analysis. Animal study protocols were approved by the Animal Care and Use Committee of Peking University (approval number: Urban-WanY-1).\nSamples of serum ( 100μL ) and freeze-dried liver ( 50mg ) and ileum tissues ( 10mg ) were spiked with 10μL of 100 ng/mL TPHP- d15 (CDAA-412134D15; ANPEL) and extracted with 2mL of ethyl acetate for 10 min on an orbital shaker. After centrifuging at 4,000×g for 10 min, the supernatants were transferred to glass tubes. The extraction process was performed twice, and the supernatants were combined, concentrated to near dryness under a gentle stream of nitrogen, and reconstituted in 1mL of n -hexane. Then, the extracts were loaded on a Sep-Pak Aminopropyl ( NH2 ) cartridge (6cc, 500mg; Waters) preconditioned with 6mL of dichloromethane, 6mL of dichloromethane/n-hexane (1:4, v/v), and 6mL of n -hexane. After being rinsed with 6mL of n -hexane and 6mL of dichloromethane/n-hexane (1:4, v/v), the target analytes were eluted with 3mL of dichloromethane. The eluates were dried under a gentle stream of nitrogen and reconstituted in 100μL of methanol.\nAnalysis of TPHP was performed on a Waters Xevo TQ-XS Triple Quadrupole mass spectrometer coupled with the Waters ACQUITY UPLC I-Class System. An InfinityLab Poroshell C18 column ( 100×2.1mm , 1.9μm ) was used. The injection volume was 5μL . Ultrapure water (0.1% formic acid) (A) and acetonitrile (B) were used as the mobile phases. The elution gradient was performed as follows: 0–3 min, 50% B; 3–6 min, 50%−70% B; 6–6.2 min, 70%−100% B; 6.2–8.5 min, 100%−100% B; 8.5–8.6 min, 100%−50% B; 8.6–10 min, 50% B. The rate of flow was 0.3mL/min . The column temperature was maintained at 40°C. The mass spectrometer was equipped with an ESI source and operated in multiple reaction monitoring (MRM) and positive ion mode. A capillary voltage of 3.0 kV , a source temperature of 150°C, and a desolvation temperature of 500°C were used. Desolvation gas and the cone gas flow were set as 1,200 liters/h and 150 liters/h , respectively, and the collision gas was 0.15mL/min . […] The matrix effects were 114.9±4.3% and 118.4±0.5% for the serum and tissues, respectively."}}, "note": "Read-outs that look alike come from different tables or passages of the source."}
{"smiles": "O=P(Oc1ccccc1)(Oc1ccccc1)Oc1ccccc1", "note": "[TPHP, triphenyl phosphate]", "values": [{"measurement": "Response (RU)", "setting": "[1]; 3.13 μM TPHP", "value": 1.43, "unit": "RU"}, {"measurement": "Response (RU)", "setting": "[1]; 6.25 μM TPHP", "value": 1.99, "unit": "RU"}, {"measurement": "Response (RU)", "setting": "[1]; 12.5 μM TPHP", "value": 3.33, "unit": "RU"}, {"measurement": "Response (RU)", "setting": "[1]; 25 μM TPHP", "value": 6.18, "unit": "RU"}, {"measurement": "Response (RU)", "setting": "[1]; 50 μM TPHP", "value": 11.56, "unit": "RU"}, {"measurement": "Response (RU)", "setting": "[1]; 100 μM TPHP", "value": 20.62, "unit": "RU"}, {"measurement": "Response (RU)", "setting": "[1]; 200 μM TPHP", "value": 25.20, "unit": "RU"}, {"measurement": "concentration at 35 d", "setting": "[2]; male, C57BL/6N, ileum, TPHP-H: 50 mg/kg daily oral gavage 35 d, read-out: TPHP concentration in ileum", "value": "13.2 ± 0.91", "unit": "ng/g"}, {"measurement": "concentration at 35 d", "setting": "[2]; male, C57BL/6N, ileum, TPHP-L: 10 mg/kg daily oral gavage 35 d, read-out: TPHP concentration in ileum", "value": "7.24 ± 1.33", "unit": "ng/g"}, {"measurement": "concentration at 35 d", "setting": "[2]; male, C57BL/6N, liver, TPHP-H: 50 mg/kg daily oral gavage 35 d, read-out: TPHP concentration in liver", "value": "12.9 ± 3.31", "unit": "ng/g"}, {"measurement": "concentration at 35 d", "setting": "[2]; male, C57BL/6N, liver, TPHP-L: 10 mg/kg daily oral gavage 35 d, read-out: TPHP concentration in liver", "value": "5.33 ± 1.91", "unit": "ng/g"}, {"measurement": "concentration at 35 d", "setting": "[2]; serum, TPHP-H: 50 mg/kg daily oral gavage 35 d, male C57BL/6N mice, read-out: TPHP concentration in serum", "value": "0.79 ± 0.36", "unit": "ng/mL"}, {"measurement": "concentration at 35 d", "setting": "[2]; serum, TPHP-L: 10 mg/kg daily oral gavage 35 d, male C57BL/6N mice, read-out: TPHP concentration in serum", "value": "0.32 ± 0.03", "unit": "ng/mL"}]}
